Reference: patent US11291648B2, “Powdered formulations of cromolyn sodium and alpha-lactose” (The General Hospital Corporation, priority 2018, dated 2022)
Where two headings read alike, the source gives them in different places.

Legend:
[1] = Particle size distribution (PSD) of formulation components; format: physicochemical; details: for D10 (3-6 μm) / D50 (20-25 μm) / D90 (50-60 μm): α-Lactose (DFE Pharma Lactohale LH201), Table 3; for D10 / D50 / D90: Cromolyn API (micronized), Table 2; for D50 (<5 μm) / D90 (<10 μm): Magnesium Stearate (micronized), Table 4
From the text: The methodology included particle size determination (PSD); powdered x-ray crystallization diffraction (PXRD); and gravimetric vapor sorption (GVS).

[2] = Table 5, Gilani et al.; cited from earlier work

## OC[C@H]1O[C@@H](O[C@H]2[C@H](O)[C@@H](O)[C@@H](O)O[C@@H]2CO)[C@H](O)[C@@H](O)[C@H]1O [Lot# 15-0066, α-Lactose]
[1]; listed as 15-0066
  D10 (3-6 μm): 4 μm
  D50 (20-25 μm): 23 μm
  D90 (50-60 μm): 57 μm

## O=C(O)c1cc(=O)c2c(OCC(O)COc3cccc4oc(C(=O)O)cc(=O)c34)cccc2o1 [Lot # 13-0105, Cromolyn sodium]
[1]; listed as 13-0105
  D10: 0.5 μm
  D50: 1.9 μm
  D90: 4.6 μm

## O=C(O)c1cc(=O)c2c(OCC(O)COc3cccc4oc(C(=O)O)cc(=O)c34)cccc2o1 [Lot # 15-0013, Cromolyn sodium]
[1]; listed as 15-0013
  D10: 0.6 μm
  D50: 1.8 μm
  D90: 3.8 μm

## OC[C@H]1O[C@@H](O[C@H]2[C@H](O)[C@@H](O)[C@@H](O)O[C@@H]2CO)[C@H](O)[C@@H](O)[C@H]1O [α-Lactose]
[1]; component of Batch 1, Table 8
  Particle size D10: 3 μm
  Particle size D50: 21 μm
  Particle size D90: 54 μm
[1]; component of Batch 2, Table 8
  Particle size D10: 4 μm
  Particle size D50: 23 μm
  Particle size D90: 57 μm
[1]; component of Batch 3, Table 8
  Particle size D10: 3 μm
  Particle size D50: 22 μm
  Particle size D90: 59 μm

## O=C(O)c1cc(=O)c2c(OCC(O)COc3cccc4oc(C(=O)O)cc(=O)c34)cccc2o1 [Cromolyn Sodium, Cromolyn sodium]
[1]; component of Batch 1, Table 8
  Particle size D10: 0.6 μm
  Particle size D50: 1.8 μm
  Particle size D90: 3.8 μm
[1]; component of Batch 2, Table 8
  Particle size D90: 4.2 μm
[1]; component of Batch 3, Table 8
  Particle size D10: 0.6 μm
  Particle size D50: 1.8 μm
  Particle size D90: 3.8 μm
[2]
  D10: 0.7 ± 0.1
  D50: 1.52 ± 0.2
  D90: 3.03 ± 0.02

## Magnesium Stearate [Lot 14-0035]
[1]; listed as 14-0035
  D50 (<5 μm): 3.56 μm
  D90 (<10 μm): 6.74 μm

## OC[C@H]1O[C@@H](O[C@H]2[C@H](O)[C@@H](O)[C@@H](O)O[C@@H]2CO)[C@H](O)[C@@H](O)[C@H]1O [Batch P450M, α-Lactose]
[2]
  D10: 2.5 ± 0.3
  D90: 26.5 ± 0.3

## Magnesium Stearate [Mg St]
[1]; component of Batch 1, Table 8
  Particle size D10: 3.3 μm
  Particle size D50: 8.3 μm
  Particle size D90: 22.6 μm
[1]; component of Batch 2, Table 8
  Particle size D50: 4.82 μm
  Particle size D90: 9.28 μm
[1]; component of Batch 3, Table 8
  Particle size D50: 4.33 μm
  Particle size D90: 8.04 μm

## OC[C@H]1O[C@@H](O[C@H]2[C@H](O)[C@@H](O)[C@@H](O)O[C@@H]2CO)[C@H](O)[C@@H](O)[C@H]1O [Lot# 13-0094, α-Lactose]
[1]; listed as 13-0094
  D10 (3-6 μm): 3 μm
  D50 (20-25 μm): 21 μm
  D90 (50-60 μm): 54 μm

## OC[C@H]1O[C@@H](O[C@H]2[C@H](O)[C@@H](O)[C@@H](O)O[C@@H]2CO)[C@H](O)[C@@H](O)[C@H]1O [Lot# 16-0127, α-Lactose]
[1]; listed as 16-0127
  D10 (3-6 μm): 3 μm
  D50 (20-25 μm): 22 μm
  D90 (50-60 μm): 59 μm

## OC[C@H]1O[C@@H](O[C@H]2[C@H](O)[C@@H](O)[C@@H](O)O[C@@H]2CO)[C@H](O)[C@@H](O)[C@H]1O [Batch P325M, α-Lactose]
[2]
  D10: 6.6 ± 0.8
  D90: 74.1 ± 3.8

## Magnesium Stearate [Lot 15-0077]
[1]; listed as 15-0077
  D50 (<5 μm): 4.82 μm
  D90 (<10 μm): 9.28 μm

## O=C(O)c1cc(=O)c2c(OCC(O)COc3cccc4oc(C(=O)O)cc(=O)c34)cccc2o1 [Lot # 15-0079, Cromolyn sodium]
[1]; listed as 15-0079
  D90: 4.2 μm

## Magnesium Stearate [Lot 18-0038]
[1]; listed as 18-0038
  D50 (<5 μm): 4.33 μm
  D90 (<10 μm): 8.04 μm
